The values below come from patent US20060251638A1, “Cytoprotection through the use of hif hydroxylase inhibitors” (priority 2003, published 2006).

Test [1] concerns gene encoding adrenomedullin. The test is described as follows: Adrenomedullin gene expression in Hep3B cells (microarray). Type of test: cell-based, human. The conditions noted are these: 25 μM compound, 6 hrs, average of two determinations. The method, then: Hep3B cells (ATCC No. HB-8064) were grown in DMEM containing 8% fetal bovine serum. Hep3B cells were seeded into 6-well culture dishes at ˜500,000 cells per well. After 8 hours, the media was changed to DMEM containing 0.5% fetal bovine serum and the cells were incubated for an additional 16 hours. Compound A, compound B, compound C, compound G, or compound H was added to the cells (25 μM final concentration) and the cells were incubated for various times. Control cells were incubated with vehicle (DMSO) with no compound treatment. Harvested cells were assessed for cell viability (GUAVA), or added to RNA extraction buffer (RNeasy, Qiagen) and stored at −20° C. for subsequent RNA purification.
RNA was precipitated in 0.3 M sodium acetate (pH 5.2), 50 ng/ml glycogen, and 2.5 volumes of ethanol for one hour at −20° C. Samples were centrifuged and pellets were washed with cold 80% ethanol, dried, and resuspend in water. Double stranded cDNA was synthesized using a T7-(dT)24 first strand primer (Affymetrix, Inc., Santa Clara Calif.) and the SUPERSCRIPT CHOICE system (Invitrogen) according to the manufacturer's instructions. The final cDNA was extracted with an equal volume of 25:24:1 phenol:chloroform:isoamyl alcohol using a PHASE LOCK GEL insert (Brinkman, Inc., Westbury N.Y.). The aqueous phase was collected and cDNA was precipitated using 0.5 volumes of 7.5 M ammonium acetate and 2.5 volumes of ethanol. Alternatively, cDNA was purified using the GENECHIP sample cleanup module (Affymetrix) according to the manufacturer's instructions.
Biotin-labeled cRNA was synthesized from the cDNA in an in vitro […] (IVT) reaction using a BIOARRAY HighYield RNA transcript labeling kit (Enzo Diagnostics, Inc., Farmingdale N.Y.) according to the manufacturer's instructions. Final labeled product was purified and fragmented using the GENECHIP sample cleanup module (Affymetrix) according to the manufacturer's instructions.
Hybridization cocktail was prepared by bringing 5 μg probe to 100 μl in 1× hybridization buffer (100 mM MES, 1 M [Na^+], 20 mM EDTA, 0.01% Tween 20), 100 μg/ml herring sperm DNA, 500 μg/ml acetylated BSA, 0.03 nM contol oligo B2 (Affymetrix), and 1× GENECHIP eukaryotic hybridization control (Affymetrix). The cocktail was sequentially incubated at 99° C. for 5 minutes and 45° C. for 5 minutes, and then centrifuged for 5 minutes. The […] array (Affymetrix) was brought to room temperature and then prehybridized with 1× hybridization buffer at 45° C. for 10 minutes with rotation. The buffer was then replaced with 80 μl hybridization cocktail and the array was hybridized for 16 hours at 45° C. at 60 rpm with counter balance. Following hybridization, arrays were washed once with 6×SSPE, 0.1% Tween 20, and then washed and stained using R-phycoerythrin-conjugated streptavidin (Molecular Probes, Eugene Oreg.), goat anti-streptavidin antibody (Vector Laboratories, Burlingame Calif.), and a GENECHIP Fluidics Station 400 instrument (Affymetrix) according to the manufacturer's EukGE-WS2v4 protocol (Affymetrix). Arrays were analyzed using a GENEARRAY scanner (Affymetrix) and Microarray Suite software (Affymetrix).
RNA quality was monitored by capillary electrophoresis (Agilent Bioanalyzer). […] Array performance was analyzed with Affymetrix MicroArray Suite (MAS) software and individual probe sets were assigned “present”, “marginal, and “absent” calls according to software defaults. […]

The next test relates to H9c2 rat cardiomyocytes. The test is described as follows: Intracellular ATP levels and morphology of H9c2 cardiomyocytes under homocysteic acid (HCA) oxidative stress. Type of test: cell-based. The method, then:
H9c2 rat cardiomyocytes were incubated with 10 mM homocysteic acid (HCA) in the absence or presence of various concentrations of compound G as indicated for 24 hours. Cell viability was determined by measuring intracellular ATP levels. Quantitation of intracellular ATP levels was performed using the ViaLight Plus™ kit (Cambrex Cat. No. LT17-221) according to the manufacturers instructions.
Phase contrast microscopy of cells treated with HCA correlated with the results shown for intracellular ATP levels in vehicle (DMSO) and compound G treated cells.

The subject of a further test is HO-1 protein. The test is described as follows: HO-1 protein levels in H9c2 cardiomyocytes by ELISA. As to conditions: H9c2, 100 μM compound; control 2.86. In kind it is cell-based, rat. The method, then:
In another series of experiments, H9c2 rat cardiomyocytes were treated with either vehicle control or with various concentrations (1 μM, 3 μM, 10 μM, 30 μM, and 100 μM) of compound C or compound G. Cell lysates were harvested and HO-1 protein levels determined by ELISA according to the manufacturer's instructions (cat # EKS-810; Stressgen, Victoria, BC, Canada). Data shown below in Table 4 represents values obtain with 100 μM compound.

`O=C(O)CNC(=O)c1ncc2cc(Oc3ccccc3)ccc2c1O` [Compound G, [(4-Hydroxy-7-phenoxy-isoquinoline-3-carbonyl)-amino]-acetic acid]: the “Adrenomedullin gene expression, fold-increase above non-treated control” value in test [1] stood at 3.278 fold. Also, the “intracellular ATP levels in the presence of HCA versus vehicle” value in the test on H9c2 rat cardiomyocytes (H9c2, 10 mM HCA, various concentrations, 24 hours, FIG. 2) is “dose-dependent increases in intracellular ATP levels”. Further, the “cell morphology by phase contrast microscopy under HCA” value in the test with H9c2 rat cardiomyocytes (H9c2, HCA, 30 μM compound, FIG. 3) was “still confluent, appeared less rounded, and maintained a morphology consistent with viable cardiomyoctes”. Besides, the “intracellular ATP levels in cells not incubated with HCA” value in the test on H9c2 rat cardiomyocytes (H9c2, no HCA, data not shown) was “unchanged”. In addition, the “HO-1 (ng/mg total cell protein)” value with HO-1 protein came out at 28.54 ng/mg total cell protein.
